Counter-ions that a name gives are not always drawn. Like-named read-outs stand apart in the source and are kept apart here.
Assays:
[1] = tested on: experimental auto-immune encephalomyelitis (EAE) development in mice; conditions: Example 1; for AUC (area under the curve) of EAE scores: day 7 to 28 scoring; for AUC (area under the curve) of EAE scores / end score (clinical EAE score 0-5) / MMS (mean maximal score): vs negative control; for AUC (area under the curve) of EAE scores / disease onset / end score (clinical EAE score 0-5) / MMS (mean maximal score): combination also vs each single treatment; for disease onset / end score (clinical EAE score 0-5): peptide 100 μg/Alum s.c. days −21, −14, −7, BG-12 100 mg/kg p.o. BID days 0 to 27; for disease onset: vs negative control (Saline/Vehicle)
Excerpt: (§1) Example 1: Effect of the prophylactic administration of an immunogenic peptide comprising a MOG35-55 MHCII T cell epitope and a HCPYC oxidoreductase motif in combination with dimethyl fumarate (BG-12, […]™) on experimental auto-immune encephalomyelitis (EAE) development in mice.
The study used a total of 64 female C57BL/6 mice (Taconic Biosciences, 10 weeks old on Day 0). Mice were acclimated for 8 days prior to the first injection. Mice were assigned to groups in a balanced manner to achieve similar average weight across the groups at the start of the study.
Treatment 1 was administered once on each of the days indicated in Table 1, s.c., at a volume of 0.05 mL/site, each mouse receiving injection at two sites, for a total of 0.1 mL/mouse/dosing day, corresponding to 100 μg of peptide.
BG-12 was dosed at 100 mg/kg. All dosing was done at the same time (+/−1 hour) each dosing day. For the BID groups there were no less than 10 and no more than 14 hours between doses.
For Treatment 1, 0.9% NaCl solution was prepared at each dosing day. […] (SEQ ID NO: 185), comprising an oxidoreductase motif HCPYC (SEQ ID NO: 71), a linker GW, a murine Myelin Oligodendrocyte Glycoprotein (MOG35-55) MHCII T cell epitope […] (SEQ ID NO: 169) and a flanking sequence HLYR (SEQ ID NO: 186) (Smart Bioscience) was solubilized immediately before use. Lyophilized IMCY-0189 was thawed at room temperature for 10 minutes, resuspended in Na Acetate buffer 50 mM pH 5.4 and incubated at room temperature for 5 minutes. Reconstituted peptide was then mixed with Imject™ Alum Adjuvant before injection.
For Treatment 2, vehicle was 0.5% HPMC, 0.2% Tween 20, and 50 mM citrate buffer at pH 4. BG-12 (or […]™, from Santa Cruz Biotechnology, catalog number sc-239774) was prepared once a week. At each preparation the required amount of BG-12 was weighed out into a mortar and triturated with a pestle. Vehicle was then added in small increments and mixed until the final volume was reached. The material was then vortexed and sonicated in a water bath until a homogeneous suspension was obtained. Formulated BG-12 was stored at 4° C., stirring continuously.
EAE was induced in all mice as follows: • Day 0, Hour 0—Immunization with a peptide corresponding to the amino acids 35-55 of MOG (MOG35-55)/CFA • Day 0, Hour 2—Injection of pertussis toxin • Day 1, Hour 0-2nd injection of pertussis toxin (24 hours after initial immunization).
Mice were injected subcutaneously at two sites in the back with the emulsion component (containing MOG35-55) of Hooke Kit™ MOG35-55/CFA Emulsion PTX, catalog number EK-2110 (lot #127, Hooke Laboratories, Lawrence Mass.). One site of injection was in the area of upper back, approximately 1 cm caudal of the neck line. The second site was in the area of lower back, approximately 2 cm cranial of the base of the tail. The injection volume was 0.1 mL at each site. Each mouse received 200 μg of MOG35-55.
Within 2 hours of the injection of emulsion, and then again 24 hours after the injection of emulsion, the pertussis toxin component of the kit was administered intraperitoneally. The pertussis toxin (lot #1008, Hooke Laboratories) was administered at 100 ng/dose for both injections and the volume of each injection was 0.1 mL.
Animals were scored daily starting from Day 7 to the end of the study. Scoring was performed blind, by a person unaware of both treatment and of previous scores for each mouse. In-between scores were assigned when the clinical signs fell between two above defined scores.
AUC, MMS, inflammation and demyelination, and NF-L levels quantification data were analyzed by performing Ordinary one-way ANOVA. Adjustment for multiplicity was performed using Holm-Sidak's method. Significant differences are referred as follows: *p<0.05, **p<0.01, ***p<0.001, ****p<0.0001.
(§2) EAE development was evaluated by comparing clinical EAE readouts for all groups to the negative control (Saline/Vehicle) group.

[2] = tested on: experimental auto-immune encephalomyelitis (EAE) development in mice; conditions: Example 3; for mice died in group: 16 mice per group
Excerpt: as §1, with “3:” for “1:”, “therapeutic” for “prophylactic”, “linked to” for “and”, “KCRC (SEQ ID NO: 65) or KCRPYC (SEQ ID NO: 84)” for “HCPYC”
The study used a total of 128 female C57BL/6 mice (Taconic Biosciences, 9 weeks old on Day 0). Mice were acclimated for 7 days prior to the first injection. Mice were assigned to groups in a balanced manner to achieve similar average weight across the groups at the start of the study.
Treatment 1 was administered once on each of the days indicated in Table 4, s.c., at a volume of 0.05 mL/site, each mouse receiving injection at two sites, for a total of 0.1 mL/mouse/dosing day. IMCY-0189 (CXXC oxidoreductase motif, IMCY-0453 (CXC oxidoreductase motif) or IMCY-0455 (CXXXC oxidoreductase motif) peptide total dose was 30 μg per administration.
BG-12 was dosed at 100 mg/kg.
All dosing were done at the same time (+/−1 hour) each dosing day. For the BID groups there were no less than 10 and no more than 14 hours between doses.
(§3) (SEQ ID NO: 266), comprising an oxidoreductase motif KCRC (SEQ ID NO: 65), a linker GW, a murine Myelin Oligodendrocyte Glycoprotein (MOG35-55) MHCII T cell epitope […] (SEQ ID NO: 169) and a flanking sequence HLYR (SEQ ID NO: 186) (Smart Bioscience) was solubilized immediately before use. Lyophilized IMCY-0453 was thawed at room temperature for 10 minutes, resuspended in Na Acetate buffer 50 mM NaCl 0.9% pH 5.4 and incubated at room temperature for 10 minutes. Reconstituted peptide was then mixed with Imject™ Alum Adjuvant before injection.
as §3, with “268),” for “266),”, “KCRPYC” for “KCRC”, “84),” for “65),”, “IMCY-0455” for “IMCY-0453”
Treatment 2 was prepared as described in example 2.
EAE induction, scoring and statistical analysis were performed as described in example
as §2

Molecule	mice died in group ([1]; 16 mice per group)	AUC (area under the curve) of EAE scores [1]	disease onset [1]	end score (clinical EAE score 0-5) [1]	MMS (mean maximal score) [1]	mice died in group [2]	disease onset ([2]; peptide 30 μg/Alum s.c. days 4, 9, 14, 19, BG-12 100 mg/kg p.o. BID days 0 to 27, vs negative control)	AUC (area under the curve) of EAE scores ([2]; vs negative control)	MMS (mean maximal score) ([2]; vs negative control)	end score (clinical EAE score 0-5) ([2]; vs negative control)	mice died due to severe EAE ([1]; 16 mice per group) [mouse]
COC(=O)/C=C/C(=O)OC [BG-12, dimethyl fumarate, reference compound]	No mice died	statistically significant reduced	postponed disease onset	reduced end score	statistically significant reduced	No mice died	postponed disease onset	statistically significant reduced	statistically significant reduced	reduced end score	–
HCPYCGWYRSPFSRVVHLYR [IMCY-0189]	2 mice	statistically significant reduced	postponed disease onset	reduced end score	statistically significant reduced	No mice died	–	–	–	–	1

Source: patent US20230172894A1, “COMBINATION TREATMENT FOR FUMARATE-RELATED DISEASES” (IMCYSE SA, priority 2020, published 2023)
